From ChEMBL document CHEMBL1142742, “Synthesis and in vitro and in vivo structure-activity relationships of novel antifungal triazoles for dermatology” (2005)
Converted amounts (≈) assume the structure as drawn.

Columns and labels:
Type in all cases: functional
[1] = Minimum inhibitory concentration against Microsporum species (n=38)
Cavia porcellus [2] = species: Cavia porcellus; test: Effective dose was measured in guinea pig infected with Microsporum canis on 14th day
Trichophyton rubrum = test: Minimum inhibitory concentration against Trichophyton rubrum (n=14)
Candida = test: Minimum inhibitory concentration against Candida species (n=24)
Cavia porcellus [3] = species: Cavia porcellus; test: Effective dose was measured in guinea pig infected with Microsporum canis on 7th day
Cavia porcellus [4] = species: Cavia porcellus; test: Effective dose was measured in guinea pig infected with Microsporum canis on 21st day
Aspergillus sp. = test: Minimum inhibitory concentration against Aspergillus species (n=8)
Trichophyton benhamiae = test: Minimum inhibitory concentration against Trichophyton mentagrophytes (n=20)
Epidermophyton floccosum = test: Minimum inhibitory concentration against Epidermophyton floccosum (n=12)
[5] = Minimum inhibitory concentration against Trichophyton species (n=80)
Trichophyton tonsurans = test: Minimum inhibitory concentration against Trichophyton tonsurans (n=18)
Mus musculus = species: Mus musculus; test: Effective dose was measured in mice infected with Trichophyton mentagrophytes
[6] = Cavia porcellus, read-out: ED50
[7] = Trichophyton rubrum, read-out: MIC50
[8] = Trichophyton rubrum, read-out: MIC90
[9] = Aspergillus sp., read-out: MIC50
[10] = Aspergillus sp., read-out: MIC90
[11] = Trichophyton benhamiae, read-out: MIC50
[12] = Trichophyton benhamiae, read-out: MIC90
[13] = Epidermophyton floccosum, read-out: MIC50
[14] = Epidermophyton floccosum, read-out: MIC90
[15] = Trichophyton tonsurans, read-out: MIC50
[16] = Trichophyton tonsurans, read-out: MIC90

| Structure (SMILES) | MIC50 ([1]; Microsporum, read-out: MIC50) [µg/mL] | MIC90 ([1]; Microsporum, read-out: MIC90) [µg/mL] | ED50 (Cavia porcellus [2]; [6]) [mg/kg] | MIC50 (Trichophyton rubrum; [7]) [µg/mL] | MIC90 (Trichophyton rubrum; [8]) [µg/mL] | MIC90 (Candida) [µg/mL] | MIC50 (Candida; Candida, read-out: MIC50) [µg/mL] | ED50 (Cavia porcellus [3]; [6]) [mg/kg] | ED50 (Cavia porcellus [4]; [6]) [mg/kg] | MIC50 (Aspergillus sp.; [9]) [µg/mL] | MIC90 (Aspergillus sp.; [10]) [µg/mL] | MIC50 (Trichophyton benhamiae; [11]) [µg/mL] | MIC90 (Trichophyton benhamiae; [12]) [µg/mL] | MIC50 (Epidermophyton floccosum; [13]) [µg/mL] | MIC90 (Epidermophyton floccosum; [14]) [µg/mL] | MIC50 ([5]; Trichophyton, read-out: MIC50) [µg/mL] | MIC90 ([5]; Trichophyton, read-out: MIC90) [µg/mL] | MIC50 (Trichophyton tonsurans; [15]) [µg/mL] | MIC90 (Trichophyton tonsurans; [16]) [µg/mL] | ED50 (Mus musculus; Mus musculus, read-out: ED50) [mg/kg] | also measured |
| --- | --- | --- | --- | --- | --- | --- | --- | --- | --- | --- | --- | --- | --- | --- | --- | --- | --- | --- | --- | --- | --- |
| CCCn1c(=O)n(CC)c(=O)n(-c2ccc(N3CCN(c4ccc(OC[C@H]5CO[C@](Cn6cncn6)(c6ccc(F)cc6F)O5)cc4)CC3)cc2)c1=O | 1 (≈ 1.37 µM) | 13 (≈ 17.8 µM) | > 2.5 | 3.2 (≈ 4.38 µM) | 3.2 (≈ 4.38 µM) | 10 (≈ 13.7 µM) | 1 (≈ 1.37 µM) | > 2.5 | > 2.5 | 10 (≈ 13.7 µM) | > 20 | 0.32 (≈ 0.438 µM) | 1 (≈ 1.37 µM) | 1 (≈ 1.37 µM) | 3.2 (≈ 4.38 µM) | > 20 | > 20 |  |  |  |  |
| CCC(C)n1ncn(-c2ccc(N3CCN(c4ccc(OC[C@H]5CO[C@](Cn6cncn6)(c6ccc(Cl)cc6Cl)O5)cc4)CC3)cc2)c1=O (some centres not stated) [ITRACONAZOLE] | 0.032 (≈ 0.0453 µM) | 0.524 (≈ 0.743 µM) | 1.2 | 0.01 (≈ 0.0142 µM) | 0.32 (≈ 0.453 µM) | 17 (≈ 24.1 µM) | 0.1 (≈ 0.142 µM) | 0.84 | 1.18 | 0.32 (≈ 0.453 µM) | 1.18 (≈ 1.68 µM) | 0.01 (≈ 0.0142 µM) | 0.129 (≈ 0.183 µM) | 0.032 (≈ 0.0453 µM) | 0.093 (≈ 0.132 µM) | 0.1 (≈ 0.142 µM) | 1 (≈ 1.42 µM) | 0.32 (≈ 0.453 µM) | 0.524 (≈ 0.743 µM) | 2.6 |  |
| CCN1C(=O)N(c2ccc(N3CCN(c4ccc(OC[C@@H]5CO[C@@](Cn6cncn6)(c6ccc(F)cc6F)O5)cc4)CC3)cc2)C(=O)C(C)(C)C1=O | 3.2 (≈ 4.47 µM) | > 20 | 3.28 | 11.6 (≈ 16.2 µM) | > 20 | > 20 | 0.32 (≈ 0.447 µM) | 1.18 | 2.35 | > 20 | > 20 | 1 (≈ 1.4 µM) | > 20 | 1 (≈ 1.4 µM) | 1 (≈ 1.4 µM) | > 20 | > 20 | > 20 | > 20 | > 2.5 |  |
| CC(C)N1CCN(c2ccc(N3CCN(c4ccc(OC[C@@H]5CO[C@@](Cn6cncn6)(c6ccc(F)cc6F)O5)cc4)CC3)cc2)C1=O | 0.1 (≈ 0.152 µM) | 0.32 (≈ 0.485 µM) | 0.44 | 0.32 (≈ 0.485 µM) | 0.934 (≈ 1.42 µM) | > 20 | 0.32 (≈ 0.485 µM) | 0.33 | 0.33 | 0.66 (≈ 1 µM) | 1.66 (≈ 2.52 µM) | 0.032 (≈ 0.0485 µM) | 0.032 (≈ 0.0485 µM) | 0.032 (≈ 0.0485 µM) | 0.093 (≈ 0.141 µM) | 0.32 (≈ 0.485 µM) | 1 (≈ 1.52 µM) | 1 (≈ 1.52 µM) | 1 (≈ 1.52 µM) | > 2.5 |  |
| CCCn1c(=O)n(CC)c(=O)n(-c2ccc(N3CCN(c4ccc(OC[C@H]5OC[C@](Cn6cncn6)(c6ccc(F)cc6F)O5)cc4)CC3)cc2)c1=O | 3.2 (≈ 4.38 µM) | > 20 | 2.35 | 3.2 (≈ 4.38 µM) | 10 (≈ 13.7 µM) | > 20 | 3.2 (≈ 4.38 µM) | 1.25 | > 2.5 | > 20 | > 20 | 1 (≈ 1.37 µM) | 3.2 (≈ 4.38 µM) | 1 (≈ 1.37 µM) | 3.2 (≈ 4.38 µM) | 3.2 (≈ 4.38 µM) | > 20 | 10 (≈ 13.7 µM) | > 20 | > 1.25 |  |
| CC(C)N1CCN(c2ccc(N3CCN(c4ccc(OC[C@H]5OC[C@](Cn6cncn6)(c6ccc(F)cc6F)O5)cc4)CC3)cc2)C1=O (stereo in doubt; 4c) [PRAMICONAZOLE] |  |  |  |  |  |  |  |  |  |  |  |  |  |  |  |  |  |  |  |  | MIC50 [1]: 0.032 µg/mL (≈ 0.0485 µM); MIC90 [1]: 0.524 µg/mL (≈ 0.794 µM); ED50 (Cavia porcellus [2]): <0.31 mg/kg; MIC50 (Trichophyton rubrum): 0.32 µg/mL (≈ 0.485 µM); MIC90 (Trichophyton rubrum): 0.796 µg/mL (≈ 1.21 µM); MIC50 (Candida): 0.1 µg/mL (≈ 0.152 µM); ED50 (Cavia porcellus [3]): <0.31 mg/kg; ED50 (Cavia porcellus [4]): <0.31 mg/kg; MIC50 (Aspergillus sp.): >20 µg/mL; MIC90 (Aspergillus sp.): >20 µg/mL; MIC50 (Trichophyton benhamiae): 0.01 µg/mL (≈ 0.0152 µM); MIC90 (Trichophyton benhamiae): 0.032 µg/mL (≈ 0.0485 µM); MIC50 (Epidermophyton floccosum): 0.32 µg/mL (≈ 0.485 µM); MIC90 (Epidermophyton floccosum): 0.093 µg/mL (≈ 0.141 µM); MIC50 (Trichophyton tonsurans): 0.32 µg/mL (≈ 0.485 µM); MIC90 (Trichophyton tonsurans): 0.1 µg/mL (≈ 0.152 µM); ED50 (Mus musculus): <0.63 mg/kg; MIC50 [5]: 0.1 µg/mL (≈ 0.152 µM); MIC90 [5]: 1.22 µg/mL (≈ 1.85 µM) |
| CCN1C(=O)N(c2ccc(N3CCN(c4ccc(OC[C@@H]5OC[C@@](Cn6cncn6)(c6ccc(F)cc6F)O5)cc4)CC3)cc2)C(=O)C(C)(C)C1=O | > 20 | > 20 | > 2.5 | > 20 | > 20 | > 20 | 15 (≈ 21 µM) | > 2.5 | > 2.5 | > 20 | > 20 | > 20 | > 20 | > 20 | > 20 | > 20 | > 20 | > 20 | > 20 |  |  |
| CN(C/C=C/C#CC(C)(C)C)Cc1cccc2ccccc12 [TERBINAFINE] | 0.032 (≈ 0.11 µM) | 0.032 (≈ 0.11 µM) | 10 | 0.01 (≈ 0.0343 µM) | 0.0254 (≈ 0.0872 µM) | 20 (≈ 68.6 µM) | 20 (≈ 68.6 µM) | 10 | 10 | 0.32 (≈ 1.1 µM) | 1.66 (≈ 5.7 µM) | 0.01 (≈ 0.0343 µM) | 0.01 (≈ 0.0343 µM) | 0.032 (≈ 0.11 µM) | 0.093 (≈ 0.319 µM) | 0.01 (≈ 0.0343 µM) | 0.032 (≈ 0.11 µM) | 0.032 (≈ 0.11 µM) | 0.0524 (≈ 0.18 µM) | 2.5 |  |
| CCCn1c(=O)n(CC)c(=O)n(-c2ccc(N3CCN(c4ccc(OC[C@@H]5OC[C@@](Cn6cncn6)(c6ccc(F)cc6F)O5)cc4)CC3)cc2)c1=O | > 20 | > 20 | > 2.5 | > 20 | > 20 | > 20 | 10 (≈ 13.7 µM) | > 2.5 | > 2.5 | > 20 | > 20 | > 20 | > 20 | > 20 | > 20 | > 20 | > 20 | > 20 | > 20 |  |  |
| CC(C)N1CCN(c2ccc(N3CCN(c4ccc(OC[C@@H]5OC[C@@](Cn6cncn6)(c6ccc(F)cc6F)O5)cc4)CC3)cc2)C1=O | 2.1 (≈ 3.18 µM) | 20 (≈ 30.3 µM) | 2.5 | 20 (≈ 30.3 µM) | 20 (≈ 30.3 µM) | 20 (≈ 30.3 µM) | 20 (≈ 30.3 µM) | 2.5 | 2.5 | 20 (≈ 30.3 µM) | 20 (≈ 30.3 µM) | 1 (≈ 1.52 µM) | 20 (≈ 30.3 µM) | 1 (≈ 1.52 µM) | 20 (≈ 30.3 µM) | 20 (≈ 30.3 µM) | 20 (≈ 30.3 µM) | 20 (≈ 30.3 µM) | 20 (≈ 30.3 µM) |  |  |
| CCC1C(=O)N(CC)C(=O)N(c2ccc(N3CCN(c4ccc(OC[C@@H]5CO[C@@](Cn6cncn6)(c6ccc(F)cc6F)O5)cc4)CC3)cc2)C1=O (some centres not stated) | 1 (≈ 1.4 µM) | > 20 | 1.94 | 3.2 (≈ 4.47 µM) | > 20 | > 20 | 0.32 (≈ 0.447 µM) | 1.18 | 1.94 | > 20 | > 20 | 1 (≈ 1.4 µM) | > 20 | 1 (≈ 1.4 µM) | 3.2 (≈ 4.47 µM) | > 20 | > 20 | > 20 | > 20 | 2.86 |  |
| CCN1C(=O)N(c2ccc(N3CCN(c4ccc(OC[C@H]5OC[C@](Cn6cncn6)(c6ccc(F)cc6F)O5)cc4)CC3)cc2)C(=O)C(C)(C)C1=O | 3.2 (≈ 4.47 µM) | > 20 | 2.35 | 3.2 (≈ 4.47 µM) | 10 (≈ 14 µM) | > 20 | 0.66 (≈ 0.922 µM) | 2.35 | 2.35 | > 20 | > 20 | 3.2 (≈ 4.47 µM) | 3.2 (≈ 4.47 µM) | 1 (≈ 1.4 µM) | 2.98 (≈ 4.16 µM) | 3.2 (≈ 4.47 µM) | > 20 | 3.2 (≈ 4.47 µM) | 13 (≈ 18.2 µM) |  |  |
| CCN1C(=O)N(c2ccc(N3CCN(c4ccc(OC[C@H]5CO[C@](Cn6cncn6)(c6ccc(F)cc6F)O5)cc4)CC3)cc2)C(=O)C(C)(C)C1=O | 10 (≈ 14 µM) | > 20 | > 5 | 11.6 (≈ 16.2 µM) | > 20 | > 20 | 0.66 (≈ 0.922 µM) | > 5 | > 5 | > 20 | > 20 | 1 (≈ 1.4 µM) | > 20 | 3.2 (≈ 4.47 µM) | > 20 | > 20 | > 20 | > 20 | > 20 | 3.1 |  |
